In patent US20090239841A1, “Diaryl Ureas as CB1 Antagonists” (priority 2004, published 2009):

Molecular target: T1, hCB1 (Homo sapiens, UniProt P21554)
T1 construct: made in house; host or cells: Sf9 insect cells (baculovirus), P2 membranes
Experiment: Agonist-induced GTP binding (GTPγ35S) assay at CB1, Example 8
Type: biochemical
Conditions: Table II; IC50 at CB1, GTP binding with 1 nM CP55,940; read-out: IC50
Summary of the method: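 Membranes from Sf9 cells co-expressing hCB1 and heterotrimeric G-protein (10 μg protein) in Tris pH 7.4 buffer with 5 μM GDP. Test compounds (10^−10–10^−5 M) competed against 1 nM CP55,940 with […] GTPγ35S, 60 min at room temperature. Filter-bound radioactivity by scintillation, expressed as percent above basal.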

T1 sequence (P21554 whole entry): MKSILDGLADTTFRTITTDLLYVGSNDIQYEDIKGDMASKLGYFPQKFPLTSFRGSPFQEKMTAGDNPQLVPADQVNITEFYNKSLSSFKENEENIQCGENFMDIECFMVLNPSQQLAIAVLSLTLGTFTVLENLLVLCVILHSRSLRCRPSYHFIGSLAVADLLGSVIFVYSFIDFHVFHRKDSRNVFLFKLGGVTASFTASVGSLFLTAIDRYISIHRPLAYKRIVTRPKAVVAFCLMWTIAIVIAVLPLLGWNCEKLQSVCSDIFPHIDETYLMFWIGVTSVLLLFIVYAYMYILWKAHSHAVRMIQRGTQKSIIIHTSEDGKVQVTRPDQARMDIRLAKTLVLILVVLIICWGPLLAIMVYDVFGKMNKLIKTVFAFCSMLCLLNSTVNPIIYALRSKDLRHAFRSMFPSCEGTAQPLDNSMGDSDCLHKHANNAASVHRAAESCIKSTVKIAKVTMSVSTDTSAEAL

| SMILES | IC50 [nM] |
| --- | --- |
| O=C(Nc1ccc(OC(F)F)cc1)Nc1ccc(C(=O)c2ccccc2)cc1 [Compound 140, N-(4-benzoylphenyl)-N′-[4-(difluoromethoxy)phenyl]urea] | < 2000 |
| Cc1ccc2cc(NC(=O)Nc3ccc(OC(F)F)cc3)ccc2n1 [Compound 142, N-[4-(difluoromethoxy)phenyl]-N′-(2-methylquinolin-6-yl)urea] | < 2000 |
| CC(C)Oc1ccc(NC(=O)Nc2cccc(OC(F)F)c2)cc1 [Compound 144, N-[3-(difluoromethoxy)phenyl]-N′-(4-isopropoxyphenyl)urea] | < 2000 |
| Cc1noc(C)c1-c1cccc(NC(=O)Nc2cccc(OC(F)F)c2)c1 [Compound 146, N-[3-(difluoromethoxy)phenyl]-N′-[3-(3,5-dimethylisoxazol-4-yl)phenyl]urea] | < 2000 |
| Cc1cc(-c2cccc(NC(=O)Nc3cccc(OC(F)F)c3)c2)cc(C)n1 [Compound 147] | < 2000 |
| CCOC(=O)c1cccc(NC(=O)Nc2ccc(OC(F)F)cc2)c1 [Compound 148, ethyl 3-[({[4-(difluoromethoxy)phenyl]amino}carbonyl)amino]benzoate] | < 2000 |
| O=C(Nc1ccc(OC(F)F)cc1)Nc1cccnc1Cl [Compound 149, N-(2-chloropyridin-3-yl)-N′-[4-(difluoromethoxy)phenyl]urea] | < 2000 |
| Cc1ccnc(NC(=O)Nc2ccc(OC(F)F)cc2)c1 [Compound 151, N-[4-(difluoromethoxy)phenyl]-N′-(4-methylpyridin-2-yl)urea] | < 2000 |
| CCc1ccc(NC(=O)Nc2ccc(F)c(C#N)c2)cc1 [Compound 152, N-(3-cyano-4-fluorophenyl)-N′-(4-ethylphenyl)urea] | < 2000 |
| CCc1ccc(NC(=O)Nc2ccc(Cl)nc2)cc1 [Compound 153, N-(6-chloropyridin-3-yl)-N′-(4-ethylphenyl)urea] | < 2000 |
| Cc1cccc(NC(=O)Nc2cccc(OC(C)C)c2)c1 [Compound 156, N-(3-isopropoxyphenyl)-N′-(3-methylphenyl)urea] | < 2000 |
| CCOc1ccc(NC(=O)Nc2cccc(C)c2)cc1 [Compound 158, N-(4-ethoxyphenyl)-N′-(3-methylphenyl)urea] | < 2000 |
| O=C(Nc1ccccc1)Nc1ccc2c(c1)CCC2 [Compound 161, N-(2,3-dihydro-1H-inden-5-yl)-N′-phenylurea] | < 2000 |
| Cc1cccc(NC(=O)Nc2ccc(N3CCOCC3)c(Cl)c2)c1 [Compound 162, N-(3-chloro-4-morpholin-4-ylphenyl)-N′-(3-methylphenyl)urea] | < 2000 |
| Cc1cccc(NC(=O)Nc2cccc(-c3ccnc(C)n3)c2)c1 [Compound 163, N-(3-methylphenyl)-N′-[3-(2-methylpyrimidin-4-yl)phenyl]urea] | < 2000 |
| Cc1ccc(NC(=O)Nc2ccc(-n3cnc(Cl)c3Cl)cc2)cc1 [Compound 166, N-[4-(4,5-dichloro-1H-imidazol-1-yl)phenyl]-N′-(4-methylphenyl)urea] | < 2000 |
| Cc1cccc(NC(=O)Nc2ccc(N3CCCCC3)cc2)c1 [Compound 168, N-(3-methylphenyl)-N′-(4-piperidin-1-ylphenyl)urea] | < 2000 |
| Cc1ccc(NC(=O)Nc2cc3ccccc3c(Br)n2)cc1 [Compound 170, N-(1-bromoisoquinolin-3-yl)-N′-(4-methylphenyl)urea] | < 2000 |
| Cc1ccc(NC(=O)Nc2ccc(C)cc2)cc1 [Compound 171, N,N′-bis(4-methylphenyl)urea] | < 2000 |
| Cc1ccc(NC(=O)Nc2ccc(F)cc2)cc1 [Compound 172, N-(4-fluorophenyl)-N′-(4-methylphenyl)urea] | < 2000 |
| Cc1ccc(NC(=O)Nc2cccc(F)c2)cc1 [Compound 173, N-(3-fluorophenyl)-N′-(4-methylphenyl)urea] | < 2000 |
| CCc1cccc(NC(=O)Nc2ccc(C)cc2)c1 [Compound 174, N-(3-ethylphenyl)-N′-(4-methylphenyl)urea] | < 2000 |
| CC(C)c1ccc(NC(=O)Nc2ccc(F)cc2)cc1 [Compound 176, N-(4-fluorophenyl)-N′-(4-isopropylphenyl)urea] | < 2000 |
| CCCc1ccc(NC(=O)Nc2cccc(F)c2)cc1 [Compound 177, N-(3-fluorophenyl)-N′-(4-propylphenyl)urea] | < 2000 |
| CCCc1ccc(NC(=O)Nc2ccc(F)cc2)cc1 [Compound 178, N-(4-fluorophenyl)-N′-(4-propylphenyl)urea] | < 2000 |
| CCc1ccc(NC(=O)Nc2cccc(CC)c2)cc1 [Compound 179, N-(3-ethylphenyl)-N′-(4-ethylphenyl)urea] | < 2000 |
| CCc1ccc(NC(=O)Nc2cccc(Cl)c2)cc1 [Compound 180, N-(3-chlorophenyl)-N′-(4-ethylphenyl)urea] | < 2000 |

Now from value to compound:

| IC50 [nM] | SMILES |
| --- | --- |
| < 2000 | O=C(Nc1ccc(OC(F)F)cc1)Nc1cccc(-c2cocn2)c1 [Compound 138] |
| < 2000 | N#Cc1cc(NC(=O)Nc2ccc(OC(F)F)cc2)ccc1F [Compound 139, N-(3-cyano-4-fluorophenyl)-N′-[4-(difluoromethoxy)phenyl]urea] |
| < 2000 | O=C(Nc1ccc(OC(F)F)cc1)Nc1cccc2cccc(Cl)c12 [Compound 141, N-(8-chloro-1-naphthyl)-N′-[4-(difluoromethoxy)phenyl]urea] |
| < 2000 | O=C(Nc1cccc(OC(F)F)c1)Nc1ccc(N2CCOCC2)c(Cl)c1 [Compound 143, N-(3-chloro-4-morpholin-4-ylphenyl)-N′-[3-(difluoromethoxy)phenyl]urea] |
| < 2000 | O=C(Nc1cccc(OC(F)F)c1)Nc1cccc(OC(F)(F)F)c1 [Compound 145, N-{3-(difluoromethoxy)phenyl]-N′-[3-(trifluoromethoxy)phenyl]urea] |
| < 2000 | CCCc1ccc(NC(=O)Nc2cccc(C)c2)cc1 [Compound 154, N-(3-methylphenyl)-N′-(4-propylphenyl)urea] |
| < 2000 | CCCCc1ccc(NC(=O)Nc2cccc(C)c2)cc1 [Compound 155, N-(4-butylphenyl)-N′-(3-methylphenyl)urea] |
| < 2000 | Cc1ccc(NC(=O)Nc2ccc(C(C)C)cc2)cc1 [Compound 157, N-(4-isopropylphenyl)-N′-(4-methylphenyl)urea] |
| < 2000 | CCCOc1ccc(NC(=O)Nc2cccc(C)c2)cc1 [Compound 159, N-(3-methylphenyl)-N′-(4-propoxyphenyl)urea] |
| < 2000 | Cc1ccc(NC(=O)Nc2ccc(C)c(F)c2)cc1 [Compound 160, N-(3-fluoro-4-methylphenyl)-N′-(4-methylphenyl)urea] |
| < 2000 | Cc1ccc(NC(=O)Nc2cccc(-c3ccnc(C)n3)c2)cc1 [Compound 164, N-(4-methylphenyl)-N′-[3-(2-methylpyrimidin-4-yl)phenyl]urea] |
| < 2000 | Cc1cccc(NC(=O)Nc2ccc(-n3cnc(Cl)c3Cl)cc2)c1 [Compound 165, N-{4-(4,5-dichloro-1H-imidazol-1-yl)phenyl]-N′-(3-methylphenyl)urea] |
| < 2000 | O=C(Nc1ccccc1)Nc1ccc(N2CCCCC2)cc1 [Compound 167, N-phenyl-N′-(4-piperidin-1-ylphenyl)urea] |
| < 2000 | Cc1ccc(NC(=O)Nc2ccc(N3CCCCC3)cc2)cc1 [Compound 169, N-(4-methylphenyl)-N′-(4-piperidin-1-ylphenyl)urea] |
| < 2000 | CCc1ccc(NC(=O)Nc2ccc(F)cc2)cc1 [Compound 175, N-(4-ethylphenyl)-N′-(4-fluorophenyl)urea] |
